13 molecules from ChEMBL document CHEMBL1132846, “Synthesis and biological evaluation of highly potent analogues of epothilones B and D” (Bioorg Med Chem Lett, 2000) can be followed below.

Usually IC50 stands for the midpoint of a concentration-inhibition curve. For orientation: EC50 means the concentration needed to bring the measured effect to its halfway point. A high value points to lower potency in that assay.

In one assay the test system is KB 3-1. As to the kind of experiment: Concentration required to inhibit the growth of paclitaxel-sensitive human epidermoid carcinoma cells KB-31 by 50 percent (72 hr exposure). The assay is classed as functional, cell-based. Particulars: KB 3-1, 72 h.
For the next assay, the system named is KB. As to the kind of experiment: Concentration required to inhibit the growth of paclitaxel-resistant human epidermoid carcinoma cells KB-8511 by 50 percent (72 hr exposure). Type of assay: functional, cell-based.
The species named for assay [1] is Sus scrofa. As to the kind of experiment: Induction of polymerization of porcine brain-derived microtubule protein by 2 uM epothilone B. The assay is classed as functional.
The species named for assay [2] is Sus scrofa. As to the kind of experiment: Concentrations required to induce 50 percent polymerization of porcine brain-derived micro-tubule protein. Type of assay: functional.

Consider `C[C@H]1CCC[C@@]2(C)O[C@H]2C[C@@H](c2ccc3c(c2)ncn3C)OC(=O)C[C@H](O)C(C)(C)C(=O)[C@H](C)[C@H]1O`, for which the IC50 with KB 3-1 came out at 0.13 nM; in the assay with KB, 0.46 nM. In the assay listed under Sus scrofa [1], this molecule had a Tubulin polymerization of 97%.

Turning to `C/C(=C\c1csc(C)n1)[C@@H]1C[C@@H]2O[C@]2(C)CCC[C@H](C)[C@H](O)[C@@H](C)C(=O)C(C)(C)[C@@H](O)CC(=O)O1` [PATUPILONE], the IC50 in the assay on KB 3-1 amounted to 0.19 nM; in the assay on KB, 0.18 nM. In the assay filed under Sus scrofa [1], this molecule came in with a Tubulin polymerization of 90%. This molecule had an EC50 in the assay filed under Sus scrofa [2] of 670 nM.

As to `C/C1=C/C[C@@H](/C(C)=C/c2csc(C)n2)OC(=O)C[C@H](O)C(C)(C)C(=O)[C@H](C)[C@@H](O)[C@@H](C)CCC1` [EPOTHILONE D], the IC50 was determined as 2.7 nM with KB 3-1 and 1.44 nM in the assay with KB. In addition, the Tubulin polymerization in the assay filed under Sus scrofa [1] is on record as 83%. The EC50 in the assay filed under Sus scrofa [2] was 880 nM.

Take `C/C1=C/C[C@@H](c2ccc3c(c2)nc(C)n3C)OC(=O)C[C@H](O)C(C)(C)C(=O)[C@H](C)[C@@H](O)[C@@H](C)CCC1`: the figures for the IC50 in the assay with KB 3-1 and in the assay on KB were 0.21 nM and 0.73 nM, respectively. In the assay filed under Sus scrofa [1], this molecule yielded a Tubulin polymerization of 94%.

For `C/C(=C\c1ccccn1)[C@@H]1C[C@@H]2O[C@]2(C)CCC[C@H](C)[C@H](O)[C@@H](C)C(=O)C(C)(C)[C@@H](O)CC(=O)O1`, the IC50 with KB 3-1 and in the assay on KB was 0.3 nM throughout.

Take `C/C1=C/C[C@@H](c2ccc3cccnc3c2)OC(=O)C[C@H](O)C(C)(C)C(=O)[C@H](C)[C@@H](O)[C@@H](C)CCC1`: the figures for the IC50 in the assay with KB 3-1 and in the assay with KB were 0.59 nM and 0.38 nM, respectively. Moreover, in the assay filed under Sus scrofa [1], the Tubulin polymerization amounted to 90%.

For `Cc1nc2cc([C@@H]3C[C@@H]4O[C@]4(C)CCC[C@H](C)[C@H](O)[C@@H](C)C(=O)C(C)(C)[C@@H](O)CC(=O)O3)ccc2s1`, the IC50 in the assay on KB 3-1 is 0.13 nM; with KB, 0.09 nM. The molecule also returned a Tubulin polymerization in the assay filed under Sus scrofa [1] of 83%.

Turning to `C[C@H]1CCC[C@@]2(C)O[C@H]2C[C@@H](c2ccc3cccnc3c2)OC(=O)C[C@H](O)C(C)(C)C(=O)[C@H](C)[C@H]1O`, the figures for the IC50 in the assay on KB 3-1 and with KB were 0.11 nM and 0.1 nM, respectively. Moreover, the Tubulin polymerization in the assay listed under Sus scrofa [1] is 78%.

Turning to `CC(=O)O[C@H]1C(=O)[C@@]2(C)[C@H]([C@H](OC(=O)c3ccccc3)[C@]3(O)C[C@H](OC(=O)[C@H](O)[C@@H](NC(=O)c4ccccc4)c4ccccc4)C(C)=C1C3(C)C)[C@]1(OC(C)=O)CO[C@@H]1C[C@@H]2O` [PACLITAXEL], the 50% inhibitory concentration (IC50) came to 2.92 nM in the assay on KB 3-1 and 626 nM with KB. In the assay filed under Sus scrofa [1], this molecule had a Tubulin polymerization of 49%.

Consider `C/C(=C\c1csc(C)n1)[C@@H]1C[C@@H]2O[C@@H]2CCC[C@H](C)[C@H](O)[C@@H](C)C(=O)C(C)(C)[C@@H](O)CC(=O)O1` [EPOTHILONE A], for which the IC50 in the assay on KB 3-1 was 2.15 nM; in the assay with KB it was 1.91 nM. The molecule also displayed a Tubulin polymerization in the assay filed under Sus scrofa [1] of 69%. The same molecule showed an EC50 in the assay filed under Sus scrofa [2] of 1120 nM.

With `C/C1=C/C[C@@H](c2ccc3sc(C)nc3c2)OC(=O)C[C@H](O)C(C)(C)C(=O)[C@H](C)[C@@H](O)[C@@H](C)CCC1`, the results for the IC50 in the assay on KB 3-1 and in the assay with KB were 0.45 nM and 0.23 nM, respectively. In the assay listed under Sus scrofa [1], the Tubulin polymerization is 76%. In addition, the concentration giving a half-maximal response (EC50) in the assay listed under Sus scrofa [2] was 930 nM.

As for `C/C1=C/C[C@@H](c2ccc3c(c2)ncn3C)OC(=O)C[C@H](O)C(C)(C)C(=O)[C@H](C)[C@@H](O)[C@@H](C)CCC1`, the IC50 is 0.46 nM with KB 3-1 and 0.91 nM in the assay on KB. Also, the Tubulin polymerization in the assay filed under Sus scrofa [1] was 86%.

Turning to `Cc1nc2cc([C@@H]3C[C@@H]4O[C@]4(C)CCC[C@H](C)[C@H](O)[C@@H](C)C(=O)C(C)(C)[C@@H](O)CC(=O)O3)ccc2n1C`, the results for the IC50 in the assay with KB 3-1 and in the assay with KB were 0.14 nM and 0.38 nM, respectively. In the assay listed under Sus scrofa [1], this molecule registered a Tubulin polymerization of 99%.
